We go through 16 compounds from patent publication US4190670A, “Prostaglandin derivatives” (priority 1974, dated 1980).

For series [1], the system named is bronchioles (bronchial resistance). Nature of the series: Guinea-pig multiparameter test: bronchial resistance. Type of series: in vivo. As to conditions: anaesthetized guinea-pig. The method, then: (§1) The selective activity of the hydroxy-prostaglandin derivatives of the present invention was established by a multiparameter guinea-pig test. In this test guinea-pigs weighing 600-900 g are anaesthetized with sodium pentobarbitone (45 mg/kg, i.p.). Supplementary doses of sodium pentobarbitone (3-6 mg i.v.) are administered when required (i.e. when spontaneous respiration appears). The jugular vein is cannulated for the administration of drugs. The guinea-pig is artificially respired with N2 O/O2 (7/3), using a Keuskamp respirator.
(§2) Then the following functions are measured:
b. Bronchial resistance and tracheal segment pressure.
A cannula is inserted into the trachea as close as possible to the thorax. The guinea-pig is artificially ventilated at 55 strokes/min. The pressure changes, assumed to be due to changes caused by the bronchioles, are measured by a pressure transducer attached to a side arm of the cannula. The trachea is occluded at its lower end with a blind-ended cannula, while a cannula is further introduced into the trachea as close as possible to the larynx. The system is completely filled with saline, and connected to a very sensitive pressure transducer. Changes in the pressure measured (cm H2 O) are assumed to reflect changes in the tone of the smooth muscle of the trachea. The trachea segment cannula is inserted with extreme caution so as to avoid disruption of the nerve or blood supply to the segment.

Series [2] relates to duodenum (intestinal motility). Nature of the series: Guinea-pig multiparameter test: intestinal contractions. Type of series: in vivo. The following applies: anaesthetized guinea-pig. The method, then:
as §1, §2
c. Measurement of intestinal motility.
A balloon, containing distilled water and connected to a pressure transducer, is inserted in the duodenum of the guinea-pig. Care is taken on ligaturing the cannula to avoid stricture of the duodenum. The balloon is at a pressure of 10-20 mm Hg.

Series [3] has as its system uterus (uterine motility). Description: Guinea-pig multiparameter test: uterine contractions. The class given is in vivo. As to conditions: anaesthetized guinea-pig. The method, then:
as §1, §2
d. Measurement of uterine motility.
A polyethylene cannula is inserted into the uterus via the vagina to a depth of 2.5 cm. This is then tied off with a ligature around the cervix. The cannula is connected to a pressure transducer, the whole system being filled with liquid paraffin at a pressure of 10-20 mm Hg.

Series [4] concerns Histamine-induced broncho-constriction. Nature of the series: Antagonism of histamine-induced broncho-constriction (guinea-pig). The class given is in vivo. As to conditions: Cavia porcellus, iv, read-out: % INHIBITION (± S.D.) of histamine-induced broncho-constriction. The method, then: The activity of the 18.xi.-, 19.xi.- and 20.xi.-hydroxy-prostaglandin derivatives on the respiratory tract misculature was further confirmed by determination of their ability to antagonize histamine-induced bronchoconstriction. This test is a modification of the guinea-pig multiparameter test, cannulations being carried out only for recording blood pressure, tracheal segment pressure and bronchial resistance.
Histamine was injected i.v. in a dose of 4 μg (as base) at regular intervals throughout the experiment. If extra doses of sodium pentobarbitone had to be administered during the course of the experiment to suppress voluntary respiration, the interval to the next dose of histamine was lengthened.
Test compounds were injected i.v. one minute before histamine in volumes less than 0.5 ml. The substances were washed in with 0.3 ml sterile saline. The lungs were artificially over-ventilated one minute prior to injection of the test compounds.
The ability of the compounds to counteract histamine-induced bronchoconstriction and the increase in tracheal segment pressure was determined using two dose levels--a low one and a high one.

A further series deals with rabbit eye. Description: Irritation following topical application in the rabbit eye (Draize scoring method). Type of series: in vivo. The text has this:
This effect can be studied using the Draize scoring method for determining irritation following topical application in the rabbit eye.

The conditions of series [5]: cited from earlier work.

The structures appear in SMILES notation. Like-named read-outs stand apart in the source and are kept apart here.

Consider `CCC(O)CC[C@H](O)/C=C/[C@H]1CCC(=O)[C@@H]1CCCCCCC(=O)O` (relative stereo) [9-keto-15α,18.xi.-dihydroxy-prost-13(t)-enoic acid], for which, in series [1] (dose 100 μg), the BRONCHIAL resistance is 0. Moreover, the INTESTINAL contractions in series [2] (dose 100 μg) is 0. For the same compound, the UTERINE contractions in series [3] (dose 100 μg) is 0. Moreover, in series [4], the inhibition in vivo at 0.001 mg stood at 25.9% and the inhibition in vivo at 0.1 mg was about 80%.

Consider `CC(O)CCC[C@H](O)/C=C/[C@H]1CCC(=O)[C@@H]1CCCCCCC(=O)O` (relative stereo) [9-keto-15α,19.xi.-dihydroxy-prost-13(t)-enoic acid], for which the BRONCHIAL resistance in series [1] (dose 100 μg) is 0. For the same compound, the INTESTINAL contractions in series [2] (dose 100 μg) came to 0. In series [3] (dose 100 μg), this compound gave a UTERINE contractions of 0. Further, in series [4], the inhibition in vivo at 0.001 mg amounted to 23.9% and the inhibition in vivo at 0.1 mg was found to be 88.1%.

For `CC(O)CCC[C@@H](O)/C=C/[C@H]1CCC(=O)[C@@H]1CCCCCCC(=O)O` (relative stereo) [9-keto-15β,19.xi.-dihydroxy-prost-13(t)-enoic acid], in series [4], the inhibition in vivo at 0.5 mg is about 85%.

In the case of `CC(O)CCC[C@@H](O)/C=C/[C@H]1CC[C@H](O)[C@@H]1CCCCCCC(=O)O` (relative stereo) [9α,15β,19.xi.-trihydroxy-prost-13-(t)-enoic acid], the inhibition in vivo at 0.5 mg in series [4] was about 60%.

In turn, `CCC(O)CC[C@H](O)/C=C/[C@H]1CC[C@@H](O)[C@@H]1CCCCCCC(=O)O` (relative stereo) [9β,15α,18.xi.-trihydroxy-prost-13(t)-enoic acid] had a BRONCHIAL resistance in series [1] (dose 500 μg) of 0. This compound had an INTESTINAL contractions in series [2] (dose 500 μg) of 0. This compound also gave a UTERINE contractions in series [3] (dose 500 μg) of 0. Also, the inhibition in vivo at 0.1 mg in series [4] came out at 28.1%.

The compound `CC(O)CCC[C@H](O)/C=C/[C@H]1CC[C@@H](O)[C@@H]1CCCCCCC(=O)O` (relative stereo) [9β,15α,19.xi.-trihydroxy-prost-13(t)-enoic acid] displayed a BRONCHIAL resistance in series [1] (dose 500 μg) of 0. The compound also came in with an INTESTINAL contractions in series [2] (dose 500 μg) of 0. Moreover, the UTERINE contractions in series [3] (dose 500 μg) is on record as 0. The inhibition in vivo at 0.1 mg in series [4] was determined as 62.5%.

On to `O=C(O)CCCCCC[C@H]1[C@H](O)CC[C@@H]1/C=C/[C@@H](O)CCCCCO` (relative stereo) [9β,15α,20-trihydroxy-prost-13(t)-enoic acid], for which the BRONCHIAL resistance in series [1] (dose 500 μg) is listed as 0. For the same compound, the INTESTINAL contractions in series [2] (dose 500 μg) is recorded as 0. The same compound came in with a UTERINE contractions in series [3] (dose 500 μg) of 0. Besides, the inhibition in vivo at 0.1 mg in series [4] is 52.9%.

In the case of `CCC(O)CC[C@H](O)/C=C/[C@H]1[C@H](O)CC(=O)[C@@H]1CCCCCCC(=O)O` (stereo partly drawn) [9-keto-11α,15α,18.xi.-trihydroxy-prost-13(t)-enoic acid], the inhibition in vivo at 0.001 mg in series [4] was about 70%.

For `CCC(O)CC[C@H](O)/C=C/[C@H]1[C@H](O)CC(=O)[C@@H]1C/C=C\CCCC(=O)O` (stereo partly drawn) [9-keto-11α,15α,18.xi.-trihydroxy-prosta-5(c),13(t)-dienoic acid], the inhibition in vivo at 0.001 mg in series [4] is about 35%.

For `CC(O)CCC[C@H](O)/C=C/[C@H]1[C@H](O)CC(=O)[C@@H]1CCCCCCC(=O)O` (stereo partly drawn) [9-keto-11α,15α,19.xi.-trihydroxy-prost-13(t)-enoic acid], the inhibition in vivo at 0.001 mg in series [4] is about 60%.

On to `CC(O)CCC[C@H](O)/C=C/[C@H]1[C@H](O)CC(=O)[C@@H]1C/C=C\CCCC(=O)O` (stereo partly drawn) [9-keto-11α,15α,19.xi.-trihydroxy-prosta-5(c),13(t)-dienoic acid], for which the inhibition in vivo at 0.001 mg in series [4] is about 70%.

As to `CCC(O)CC[C@H](O)/C=C/[C@H]1CCC(=O)[C@@H]1C/C=C\CCCC(=O)O` (stereo partly drawn) [9-keto-15α,18.xi.-dihydroxy-prosta-5(c),13(t)-dienoic acid], in series [4], the inhibition in vivo at 0.001 mg turned out to be 45%.

Turning to `CC(O)CCC[C@H](O)/C=C/[C@H]1CCC(=O)[C@@H]1C/C=C\CCCC(=O)O` (stereo partly drawn) [9-keto-15α,19.xi.-dihydroxy-prosta-5(c),13(t)-dienoic acid], the inhibition in vivo at 0.001 mg in series [4] stood at 50.3%.

`O=C(O)CCC/C=C\C[C@H]1C(=O)CC[C@@H]1/C=C/[C@@H](O)CCCCCO` [9-keto-15α,20-dihydroxy-prosta-5(c),13(t)-dienoic acid]: the inhibition in vivo at 0.001 mg in series [4] amounted to 60.7%.

In turn, `CCCCC[C@H](O)/C=C/[C@H]1[C@H](O)CC(=O)[C@@H]1CCCCCCC(=O)O` [PGE1, 9-keto-11α,15α-dihydroxy-prost-13(t)-enoic acid, reference compound] gave a BRONCHIAL resistance in series [1] (dose 5 μg) of 0. This compound also returned a UTERINE contractions in series [3] (dose 5 μg) of 0. The inhibition in vivo at 0.0001 mg in series [4] (dose 0.1 μg i.v., one minute before histamine 4 μg i.v.) was determined as 27.6%. In addition, the inhibition in vivo at 0.001 mg in series [4] (dose 1 μg i.v., one minute before histamine 4 μg i.v.) worked out at 53.2%. Besides, the inhibition in vivo at 0.005 mg in series [4] (dose 5.0 μg i.v., one minute before histamine 4 μg i.v.) was about 88%. Also, the threshold irritant dose in the series on rabbit eye came out at 1 μg/eye.

For the compound `CCCCC[C@H](O)/C=C/[C@H]1[C@H](O)CC(=O)[C@@H]1C/C=C\CCCC(=O)O` [PGE2, 9-keto-11α,15α-dihydroxy-prosta-5(c),13(t)-dienoic acid], the “persistant coughing on aerosol use” value in series [5] was “persistant coughing”.
